Assay results as given in the NIST ThermoML archive (doi:10.1016/j.jct.2017.02.023).
± gives the expanded uncertainty stated by the source.

Legend:
[1] = 81.5 kPa, Liquid, Vibrating tube method
[2] = refractive index (Na D-line) (dimensionless); settings: 81.5 kPa, Liquid, Standard Abbe refractometry
[3] = xn = mol fraction of the nth substance listed; settings: 81.5 kPa, Liquid, Vibrating tube method, x1 = 1
[4] = refractive index (Na D-line) (dimensionless); xn = mol fraction of the nth substance listed; settings: 81.5 kPa, Liquid, Standard Abbe refractometry, x1 = 1

Row | SMILES | mass density ([1]; 298.15 K) | mass density ([1]; 308.15 K) | mass density ([1]; 318.15 K) | mass density ([1]; 328.15 K) | refractive index ([2]; 298.15 K) | refractive index ([2]; 308.15 K) | refractive index ([2]; 318.15 K) | refractive index ([2]; 328.15 K) | mass density ([3]; 298.15 K) | mass density ([3]; 308.15 K) | mass density ([3]; 318.15 K) | mass density ([3]; 328.15 K) | refractive index ([4]; 298.15 K) | refractive index ([4]; 308.15 K) | refractive index ([4]; 318.15 K) | refractive index ([4]; 328.15 K)
1 | CCCCCC(C)O (centres undefined) [2-heptanol] | 813.36 ± 1.6 kg/m3 | 805.72 ± 1.6 kg/m3 | 797.65 ± 1.6 kg/m3 | 789.38 ± 1.6 kg/m3 | 1.41924 ± 0.0016 | 1.41505 ± 0.0016 | 1.41076 ± 0.0016 | 1.40647 ± 0.0016 | – | – | – | – | – | – | – | –
2 | CCCCCC(C)O (centres undefined) [2-heptanol] + CNC1CCCCC1 | – | – | – | – | – | – | – | – | 813.36 ± 1.6 kg/m3 | 805.72 ± 1.6 kg/m3 | 797.65 ± 1.6 kg/m3 | 789.38 ± 1.6 kg/m3 | 1.41924 ± 0.0016 | 1.41505 ± 0.0016 | 1.41076 ± 0.0016 | 1.40647 ± 0.0016
3 | CCCCC(C)O (centres undefined) [2-hexanol] | 810.17 ± 1.6 kg/m3 | 801.94 ± 1.6 kg/m3 | 793.57 ± 1.6 kg/m3 | 784.6 ± 1.6 kg/m3 | 1.41296 ± 0.0016 | 1.40853 ± 0.0016 | 1.40413 ± 0.0016 | 1.3996 ± 0.0016 | – | – | – | – | – | – | – | –
4 | CCCCC(C)O (centres undefined) [2-hexanol] + CNC1CCCCC1 | – | – | – | – | – | – | – | – | 810.17 ± 1.6 kg/m3 | 801.94 ± 1.6 kg/m3 | 793.57 ± 1.6 kg/m3 | 784.6 ± 1.6 kg/m3 | 1.41296 ± 0.0016 | 1.40853 ± 0.0016 | 1.40413 ± 0.0016 | 1.3996 ± 0.0016
5 | CCCCCCC(C)O (centres undefined) [2-octanol] | 817.05 ± 1.6 kg/m3 | 809.43 ± 1.6 kg/m3 | 801.32 ± 1.6 kg/m3 | 793.06 ± 1.6 kg/m3 | 1.42483 ± 0.0016 | 1.42073 ± 0.0016 | 1.41648 ± 0.0016 | 1.41224 ± 0.0016 | – | – | – | – | – | – | – | –
6 | CCCCCCC(C)O (centres undefined) [2-octanol] + CNC1CCCCC1 | – | – | – | – | – | – | – | – | 817.05 ± 1.6 kg/m3 | 809.43 ± 1.6 kg/m3 | 801.32 ± 1.6 kg/m3 | 793.06 ± 1.6 kg/m3 | 1.42483 ± 0.0016 | 1.42073 ± 0.0016 | 1.41648 ± 0.0016 | 1.41224 ± 0.0016
7 | CNC1CCCCC1 [N-methylcyclohexylamine] | 865.2 ± 1.6 kg/m3 | 856.57 ± 1.6 kg/m3 | 847.67 ± 1.6 kg/m3 | 838.68 ± 1.6 kg/m3 | 1.45306 ± 0.0016 | 1.44812 ± 0.0016 | 1.4431 ± 0.0016 | 1.43809 ± 0.0016 | – | – | – | – | – | – | – | –
8 | CCC(C)O (centres undefined) [butan-2-ol] | 802.71 ± 1.6 kg/m3 | 794.2 ± 1.6 kg/m3 | 785.32 ± 1.6 kg/m3 | 775.52 ± 1.6 kg/m3 | 1.39544 ± 0.0016 | 1.39105 ± 0.0016 | 1.38646 ± 0.0016 | 1.38175 ± 0.0016 | – | – | – | – | – | – | – | –
9 | CCC(C)O (centres undefined) [butan-2-ol] + CNC1CCCCC1 | – | – | – | – | – | – | – | – | 802.71 ± 1.6 kg/m3 | 794.2 ± 1.6 kg/m3 | 785.32 ± 1.6 kg/m3 | 775.52 ± 1.6 kg/m3 | 1.39544 ± 0.0016 | 1.39105 ± 0.0016 | 1.38646 ± 0.0016 | 1.38175 ± 0.0016
10 | CCCC(C)O (centres undefined) [pentan-2-ol] | 805.37 ± 1.6 kg/m3 | 796.95 ± 1.6 kg/m3 | 788.38 ± 1.6 kg/m3 | 779.17 ± 1.6 kg/m3 | 1.4045 ± 0.0016 | 1.40029 ± 0.0016 | 1.39586 ± 0.0016 | 1.39126 ± 0.0016 | – | – | – | – | – | – | – | –
11 | CCCC(C)O (centres undefined) [pentan-2-ol] + CNC1CCCCC1 | – | – | – | – | – | – | – | – | 805.37 ± 1.6 kg/m3 | 796.95 ± 1.6 kg/m3 | 788.38 ± 1.6 kg/m3 | 779.17 ± 1.6 kg/m3 | 1.4045 ± 0.0016 | 1.40029 ± 0.0016 | 1.39586 ± 0.0016 | 1.39126 ± 0.0016
12 | CC(C)O [propan-2-ol] | 781.05 ± 1.6 kg/m3 | 772.41 ± 1.6 kg/m3 | 763.41 ± 1.6 kg/m3 | 753.12 ± 1.6 kg/m3 | 1.37511 ± 0.0016 | 1.37097 ± 0.0016 | 1.36665 ± 0.0016 | 1.36181 ± 0.0016 | – | – | – | – | – | – | – | –
13 | CC(C)O [propan-2-ol] + CNC1CCCCC1 | – | – | – | – | – | – | – | – | 781.05 ± 1.6 kg/m3 | 772.41 ± 1.6 kg/m3 | 763.41 ± 1.6 kg/m3 | 753.12 ± 1.6 kg/m3 | 1.37511 ± 0.0016 | 1.37097 ± 0.0016 | 1.36665 ± 0.0016 | 1.36181 ± 0.0016
